Laboratory results from patent US20250235462A1, “NOVEL CAPSID ASSEMBLY INHIBITORS” (AM SCIENCES INC, priority 2021, published 2025).
“And” between values parts separate entries of the source, which are not always exact repeats. Equal entries are not always repeated. Where two headings read alike, the source gives them in different places.

Legend:
[1] = system: intracellular HBV DNA; experiment: Real-time PCR for intracellular HBV DNA in HepAD38 cells; assay type: cell-based, hepatitis B virus (HBV); settings: treated for 65 hours, intracellular HBV DNA by real-time PCR
Protocol: HepAD38 cells were cultured in DMEM medium (Welgene) supplemented with 200 unit/mL penicillin, 200 μg/mL streptomycin, and 10% FBS. During maintenance and passage, the cells were cultured together with 0.4 μg/mL tetracycline. Two days before the treatment with compounds for inducing HBV replication was started, the medium was replaced with a tetracycline-free complete growth medium. […]
HepAD38 cells were treated with a compound for 65 hours and then recovered, and intracellular HBV DNA was extracted therefrom according to the protocol in the DNeasy Blood & Tissue Kit (Qiagen). The primers and probes used to quantify HBV DNA were 5′-[…]-3′, 5′-[…]-3′, and 5′-/56-FAM/TGT CCT GGT/ZEN/[…]/3IABKFQ/-3′. The HBV DNA was amplified by real-time PCR assay using LightCycler 480 (Roche) (J. Virol., 2018, 92(16):e00339-18). All of the processes were confirmed in duplicate.

[2] = target: Protein (capsid assembly) (Hepatitis B virus genotype D subtype ayw, UniProt P03146); experiment: Protein inhibition (capsid assembly inhibition), Table 1; assay type: biochemical; settings: for inhibition at 30 µM: read-out: Protein % inhibition rate (@30 μM); for EC50: NVR value of the same run in brackets, read-out: Protein EC50
Chain of Protein (capsid assembly) (P03146 whole entry): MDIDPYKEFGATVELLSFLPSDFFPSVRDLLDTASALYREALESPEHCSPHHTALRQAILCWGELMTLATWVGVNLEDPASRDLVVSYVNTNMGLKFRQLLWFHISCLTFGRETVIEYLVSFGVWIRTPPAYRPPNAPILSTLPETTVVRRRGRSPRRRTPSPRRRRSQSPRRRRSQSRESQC

[3] = Hepatitis B virus, HePAD38, 65 h

Row | Compound | IC50 [1, 3] | inhibition at 30 µM [2] | EC50 [2] | IC50 ([1]; read-out: IC50)
1 | COC(=O)Cc1nnc(CN(C(=O)Nc2ccc(F)c(Cl)c2)c2ccc3c(c2)OCO3)[nH]1 [Example 45, Methyl 2-(5-((1-(benzo[d][1,3]dioxol-5-yl)-3-(3-chloro-4-fluorophenyl)ureido)methyl)-4H-1,2,4-triazol-3-yl)acetate] | > 3.3 µM | 6% | – | –
2 | O=C(Nc1ccc(F)c(Cl)c1)N(Cc1nnc2n1CCCCCC2)c1ccc2c(c1)OCO2 [Example 30, 1-(Benzo[d][1,3]dioxol-5-yl)-3-(3-chloro-4-fluorophenyl)-1-((5,6,7,8,9,10-hexahydro-[1,2,4]triazolo[4,3-a]azocin-3-yl)methyl)urea] | 0.74 µM | 32% | 3.6 µM | –
3 | O=C(Nc1cc(F)c(F)c(F)c1)c1ccc(F)c(S(=O)(=O)N2CCC(O)CC2)c1 [NVR, reference compound] | – | – | 4.1 µM and 5.2 µM and 4.9 µM and 3.9 µM and 4.8 µM | 0.4 µM
4 | CC(C)(C)OC(=O)n1ccc2cc(N(Cc3nnc4n3CCCCC4)C(=O)Nc3ccc(F)c(Cl)c3)ccc21 [Example 17, tert-Butyl 5-(3-(3-chloro-4-fluorophenyl)-1-((6,7,8,9-tetrahydro-5H-[1,2,4]triazolo[4,3-a]azepin-3-yl)methyl)ureido)-1H-indole-1-carboxylate] | > 3.3 µM | 92.6% | 13 µM | –
5 | COc1ccc(N(Cc2nnc3n2CCN(C(=O)OCc2ccccc2)CC3)C(=O)Nc2ccc(F)c(Cl)c2)cc1 [Example 38, Benzyl 3-((3-(3-chloro-4-fluorophenyl)-1-(4-methoxyphenyl)ureido)methyl)-8,9-dihydro-5H-[1,2,4]triazolo[4,3-d][1,4]diazepine-7(6H)-carboxylate] | > 3.3 µM | -1% | – | –
6 | COc1ccc(N(Cc2nnc(C)n2C)C(=O)Nc2ccc(F)c(Cl)c2)cc1 [Example 15, 3-(3-Chloro-4-fluorophenyl)-1-((4,5-dimethyl-4H-1,2,4-triazol-3-yl)methyl)-1-(4-methoxyphenyl)urea] | > 3.3 µM | 55.3% | 29 µM | –
7 | O=C(Nc1ccccc1Cl)N(Cc1nnc2n1CCCCC2)c1ccc2c(c1)OCO2 [Example 5, 1-(Benzo[d][1,3]dioxol-5-yl)-3-(2-chlorophenyl)-1-((6,7,8,9-tetrahydro-5H-[1,2,4]triazolo[4,3-a]azepin-3-yl)methyl)urea] | > 3.3 µM | 9% | – | –
8 | COc1ccc(N(Cc2nnc3n2CCCCC3)C(=O)N(C)c2ccc(F)c(Cl)c2)cc1 [Example 9, 1-(3-Chloro-4-fluorophenyl)-3-(4-methoxyphenyl)-1-methyl-3-((6,7,8,9-tetrahydro-5H-[1,2,4]triazolo[4,3-a]azepin-3-yl)methyl)urea] | 0.75 µM | 5% | – | –
9 | CNc1ccc(N(Cc2nnc3n2CCCCC3)C(=O)Nc2ccc(F)c(Cl)c2)cc1 [Example 14, 3-(3-Chloro-4-fluorophenyl)-1-(4-(methylamino)phenyl)-1-((6,7,8,9-tetrahydro-5H-[1,2,4]triazolo[4,3-a]azepin-3-yl)methyl)urea] | > 0.55 µM | 92% | 2.8 µM | –
10 | Cn1ccc(N(Cc2nnc3n2CCCCC3)C(=O)Nc2ccc(F)c(Cl)c2)n1 [Example 35, 3-(3-Chloro-4-fluorophenyl)-1-(1-methyl-1H-pyrazol-3-yl)-1-((6,7,8,9-tetrahydro-5H-[1,2,4]triazolo[4,3-a]azepin-3-yl)methyl)urea] | > 3.3 µM | 63.1% | – | –
11 | O=C(Nc1ccc(F)c(Cl)c1)N(Cc1nnc2n1CCCCC2)c1ccc2cc[nH]c2c1 [Example 10, 3-(3-Chloro-4-fluorophenyl)-1-(1H-indol-6-yl)-1-((6,7,8,9-tetrahydro-5H-[1,2,4]triazolo[4,3-a]azepin-3-yl)methyl)urea] | > 3.3 µM | 85% | – | –
